Test [1] addresses 5-HT2A receptors (UniProt P14842). The test is described as follows: in-vitro affinity to 5-HT2A receptors, [3H]ketanserine displacement (Example A1). It counts as binding. From the text:
The 5-HT2A receptors are exposed both to [^3H]ketanserine (a substance known for its affinity to the receptor) and also to the test compound. The decrease in the affinity of [^3H]ketanserine to the receptor is an indication of the affinity of the test substance to the 5-HT2A receptor.

In test [2] the target is T1, 5 HT2C receptor (Homo sapiens, UniProt P28335).
T1 sequence (P28335 33-458): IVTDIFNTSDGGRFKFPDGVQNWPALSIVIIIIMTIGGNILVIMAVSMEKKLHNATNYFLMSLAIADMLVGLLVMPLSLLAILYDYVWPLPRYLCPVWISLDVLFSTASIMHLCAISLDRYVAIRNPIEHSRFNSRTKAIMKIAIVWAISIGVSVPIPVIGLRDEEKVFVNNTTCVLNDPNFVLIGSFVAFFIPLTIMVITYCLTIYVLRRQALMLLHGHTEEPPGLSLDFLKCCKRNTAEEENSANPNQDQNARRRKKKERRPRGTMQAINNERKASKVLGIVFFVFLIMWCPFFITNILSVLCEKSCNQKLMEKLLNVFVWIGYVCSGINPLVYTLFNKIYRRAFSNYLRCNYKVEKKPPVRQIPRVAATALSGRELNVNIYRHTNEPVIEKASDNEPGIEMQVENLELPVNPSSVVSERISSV
The test can be described thus: affinity to the 5 HT2C receptor. It counts as binding.

`CN1CCC(N(C)Cc2cnn(-c3ccc(-c4ccc(F)cc4)cc3)c2-c2ccco2)C1` (stereo not shown) [Example 529, [1-(4′-Fluorobiphenyl-4-yl)-5-furan-2-yl-1H-pyrazol-4-ylmethyl]methyl-(1-methylpyrrolidin-3-yl)amine]: the IC50 (in general, the concentration that gives 50% inhibition) in test [1] was found to be 0.514 nM; in test [2] it was 434 nM.

Turning to `COc1ccc(-c2ccc(-n3ncc(CN4CCNCC4)c3-c3ccco3)cc2)cc1` [Example 530, 1-[5-Furan-2-yl-1-(4′-methoxybiphenyl-4-yl)-1H-pyrazol-4-ylmethyl]piperazine], the IC50 in test [1] was 1.1 nM; in test [2], 200 nM.

For `CN(C)Cc1cnn(-c2ccc(-c3ccc4c(c3)OCO4)cc2)c1-c1ccco1` [Example 531, [1-(4-Benzo-1,3-dioxol-5-ylphenyl)-5-furan-2-yl-1H-pyrazol-4-ylmethyl]dimethylamine], the IC50 in test [1] is 1.4 nM; in test [2], 74 nM.

As to `CN1CCN(Cc2cnn(-c3ccc(-c4ccc(F)cc4)cc3)c2-c2ccco2)CC1` [Example 532, 1-[1-(4′-Fluorobiphenyl-4-yl)-5-furan-2-yl-1H-pyrazol-4-ylmethyl]-4-methylpiperazine], the IC50 was 1.48 nM in test [1] and 190 nM in test [2].

Consider `CCN1CCN(Cc2cnn(-c3ccc(-c4ccc5c(c4)OCO5)cc3)c2-c2ccco2)CC1` [Example 533, 1-[1-(4-Benzo-1,3-dioxol-5-ylphenyl)-5-furan-2-yl-1H-pyrazol-4-ylmethyl]-4-ethylpiperazine], for which the values for the half-maximal inhibitory concentration (IC50) in test [1] and in test [2] were 1.6 nM and 224 nM, respectively.

With `c1coc(-c2c(CN3CCNCC3)cnn2-c2ccc(-c3ccc4c(c3)OCO4)cc2)c1` [Example 534, 1-[1-(4-Benzo-1,3-dioxol-5-ylphenyl)-5-furan-2-yl-1H-pyrazol-4-ylmethyl]piperazine], the IC50 stood at 2 nM in test [1] and 110 nM in test [2].

`CN1CCN(Cc2cnn(-c3ccc(-c4ccc5c(c4)OCCO5)cc3)c2-c2ccco2)CC1` [Example 535, 1-{1-[4-(2,3-Dihydrobenzo-1,4-dioxin-6-yl)phenyl]-5-furan-2-yl-1H-pyrazol-4-ylmethyl}-4-methylpiperazine]: the half-inhibitory concentration (IC50) in test [1] amounted to 2.3 nM; in test [2], 350 nM.

`CCN1CCN(Cc2cnn(-c3ccc(-c4ccc(F)cc4)cc3)c2-c2occc2C)CC1` [Example 536, 1-Ethyl-4-[1-(4′-fluorobiphenyl-4-yl)-5-(3-methyl-2-furanyl)-1H-pyrazol-4-ytmethyl]piperazine]: the results for the half-inhibitory concentration (IC50) in test [1] and in test [2] were 3 nM and 1000 nM, respectively.

`CN(C)C1CCN(Cc2cnn(-c3ccc(-c4ccc(F)cc4)cc3)c2-c2ccco2)C1` (stereo not shown) [Example 537, {1-[1-(4′-Fluorobiphenyl-4-yl)-5-furan-2-yl-1H-pyrazol-4-ylmethyl]pyrrolidin-3-yl}dimethylamine]: the IC50 in test [1] stood at 3.1 nM; in test [2], 620 nM.

For the compound `CN(C)Cc1cnn(-c2ccc(-c3cccc(F)c3)cc2)c1-c1ccco1` [Example 538, [1-(3′-Fluorobiphenyl-4-yl)-5-furan-2-yl-1H-pyrazol-4-ylmethyl]dimethylamine], the IC50 in test [1] came out at 3.4 nM; in test [2], 170 nM.

`CCN1CCN(Cc2cnn(-c3ccc(-c4ccc(F)cc4)cc3)c2-c2ccco2)CC1` [Example 539, 1-Ethyl-4-[1-(4′-fluorobiphenyl-4-yl)-5-furan-2-yl-1H-pyrazol-4-ylmethyl]piperazine]: the IC50 came out at 3.6 nM in test [1] and 310 nM in test [2].

Consider `CN(C)Cc1cnn(-c2ccc(-c3ccc4c(c3)OCCO4)cc2)c1-c1ccco1` [Example 540, {1-[4-(2,3-Dihydrobenzo-1,4-dioxin-6-yl)phenyl]-5-furan-2-yl-1H-pyrazol-4-ylmethyl}dimethylamine], for which the IC50 came out at 3.6 nM in test [1] and 180 nM in test [2].

Consider `Fc1cccc(-c2ccc(-n3ncc(CN4CCNCC4)c3-c3ccco3)cc2)c1` [Example 541, 1-[1-(3′-Fluorobiphenyl-4-yl)-5-furan-2-yl-1H-pyrazol-4-ylmethyl]piperazine], for which the IC50 in test [1] was 3.6 nM; in test [2], 150 nM.

For `COc1ccc(-c2ccc(-n3ncc(CN(C)C)c3-c3ccco3)cc2)cc1` [Example 542, [5-Furan-2-yl-1-(4′-methoxybiphenyl-4-yl)-1H-pyrazol-4-ylmethyl]dimethylamine], the IC50 is 3.8 nM in test [1] and 290 nM in test [2].

As for `CN1CCC(N(C)Cc2cnn(-c3ccc(-c4ccc(F)cc4)cc3)c2-c2ccco2)C1` (stereo not shown) [Example 543, [1-(4′-Fluorobiphenyl-4-yl)-5-furan-2-yl-1H-pyrazol-4-ylmethyl]methyl-(1-methyl-3-pyrrolidinyl)amine], the 50% inhibitory concentration (IC50) amounted to 4 nM in test [1] and 370 nM in test [2].

On to `OC1CCN(Cc2cnn(-c3ccc(-c4ccc5c(c4)OCCO5)cc3)c2-c2ccco2)C1` (stereo not shown) [Example 544, 1-{1-[4-(2,3-Dihydrobenzo-1,4-dioxin-6-yl)phenyl]-5-furan-2-yl-1H-pyrazol-4-ylmethyl}pyrrolidin-3-ol], for which the values for the half-maximal inhibitory concentration (IC50) in test [1] and in test [2] were 4.3 nM and 470 nM, respectively.

Regarding `Fc1ccc(-c2ccc(-n3ncc(CN4CCN(C5CCCC5)CC4)c3-c3ccco3)cc2)cc1` [Example 545, 1-Cyclopentyl-4-[1-(4′-fluorobiphenyl-4-yl)-5-furan-2-yl-1H-pyrazol-4-ylmethyl]piperazine], the figures for the half-inhibitory concentration (IC50) in test [1] and in test [2] were 4.8 nM and 2000 nM, respectively.

Consider `COc1ccc(-c2ccc(-n3ncc(CN4CCN(C)CC4)c3-c3ccco3)cc2)cc1` [Example 546, 1-[5-Furan-2-yl-1-(4′-methoxybiphenyl-4-yl)-1H-pyrazol-4-ylmethyl]-4-methylpiperazine], for which the values for the IC50 in test [1] and in test [2] were 4.8 nM and 360 nM, respectively.

As to `CC(C)(C)OC(=O)N1CCN(Cc2cnn(-c3ccc(-c4ccc5c(c4)OCO5)cc3)c2-c2ccco2)CC1` [Example 547, tert-Butyl 4-[1-(4-benzo-1,3-dioxol-5-ylphenyl)-5-furan-2-yl-1H-pyrazol-4-ylmethyl]piperazine-1-carboxylate], the IC50 was determined as 4.8 nM in test [1] and 1000 nM in test [2].

As for `OC1CCN(Cc2cnn(-c3ccc(-c4ccc5c(c4)OCO5)cc3)c2-c2ccco2)C1` (stereo not shown) [Example 548, 1-[1-(4-Benzo-1,3-dioxol-5-ylphenyl)-5-furan-2-yl-1H-pyrazol-4-ylmethyl]pyrrolidin-3-ol], the results for the half-inhibitory concentration (IC50) in test [1] and in test [2] were 5.1 nM and 410 nM, respectively.

Turning to `CN1CCN(Cc2cnn(-c3ccc(-c4cccc(F)c4)cc3)c2-c2ccccc2F)CC1` [Example 549, 1-[1-(3′-Fluorobiphenyl-4-yl)-5-(2-fluorophenyl)-1H-pyrazol-4-ylmethyl]-4-methylpiperazine], the half-inhibitory concentration (IC50) in test [1] came to 5.4 nM; in test [2] it was 460 nM.

In the case of `CN1CCN(Cc2cnn(-c3ccc(-c4ccc5c(c4)OCO5)cc3)c2-c2ccco2)CC1` [Example 550, 1-[1-(4-Benzo-1,3-dioxol-5-ylphenyl)-5-furan-2-yl-1H-pyrazol-4-ylmethyl]-4-methylpiperazine], the half-inhibitory concentration (IC50) turned out to be 5.8 nM in test [1] and 170 nM in test [2].

For `COc1cc2c(cc1OC)CN(Cc1cnn(-c3ccc(-c4ccc(F)cc4)cc3)c1-c1ccco1)CC2` [Example 697, 2-[1-(4′-Fluorobiphenyl-4-yl)-5-furan-2-yl-1H-pyrazol-4-ylmethyl]-6,7-dimethoxy-1,2,3,4-tetrahydroisoquinoline], the concentration for half-maximal inhibition (IC50) in test [1] was found to be 350 nM.

The compound `COc1cccc(-c2c(CN3CCC(N4CCCC4)CC3)cnn2-c2ccc(-c3ccc(F)cc3)cc2)c1` [Example 698, 1-[1-(4′-Fluorobiphenyl-4-yl)-5-(3-methoxyphenyl)-1H-pyrazol-4-ylmethyl]-4-pyrrolidin-1-ylpiperidine] came in with a half-inhibitory concentration (IC50) in test [1] of 420 nM.

In test [1], `CC(=O)N(CCN1CCCCC1)Cc1cnn(-c2ccc(-c3ccc(F)cc3)cc2)c1-c1ccco1` [Example 699, N-[1-(4′-Fluorobiphenyl-4-yl)-5-furan-2-yl-1H-pyrazol-4-ylmethyl]-N-(2-piperidin-1-ylethyl)acetamide] came in with an IC50 of 430 nM.

Consider `COc1ccc(-c2ccc(-n3ncc(CN(Cc4nccn4C)Cc4nccn4C)c3-c3ccco3)cc2)cc1` [Example 700, [5-Furan-2-yl-1-(4′-methoxybiphenyl-4-yl)-1H-pyrazol-4-ylmethyl]bis-(1-methyl-1H-imidazol-2-ylmethyl)amine], for which the IC50 in test [1] amounted to 450 nM.

The compound `CN(C)CCN1CCN(Cc2cnn(-c3ccc(-c4ccc(F)cc4)cc3)c2-c2cccc(Cl)c2)CC1` [Example 701, (2-{4-[5-(3-Chlorophenyl)-1-(4′-fluorobiphenyl-4-yl)-1H-pyrazol-4-ylmethyl]piperazin-1-yl}ethyl)dimethylamine] gave an IC50 in test [1] of 470 nM.

`Fc1ccc(-c2ccc(-n3ncc(CN4CCN(CCN5CCCCC5)CC4)c3-c3cccc(Cl)c3)cc2)cc1` [Example 702, 1-[5-(3-Chlorophenyl)-1-(4′-fluorobiphenyl-4-yl)-1H-pyrazol-4-ylmethyl]-4-(2-piperidin-1-ylethyl)piperazine] came in with an IC50 in test [1] of 470 nM.

Consider `Fc1ccc(-c2ccc(-n3ncc(CN4CCN(CCN5CCCC5)CC4)c3-c3cccc(Cl)c3)cc2)cc1` [Example 703, 1-[5-(3-Chlorophenyl)-1-(4′-fluorobiphenyl-4-yl)-1H-pyrazol-4-ylmethyl]-4-(2-pyrrolidin-1-ylethyl)piperazine], for which the IC50 in test [1] came out at 480 nM.

“{[1-(4′-Fluorobiphenyl-4-yl)-5-furan-2-yl-1H-pyrazol-4-ylmethyl]methylamino}phenylpropan-1-ol [Example 587]” registered a half-maximal inhibitory concentration (IC50) in test [1] of 19 nM.

The values are drawn from patent US7842695B2, “Substituted pyrazole compounds” (Merck Patent GmbH, priority 2003, dated 2010).
